Assay results reported in patent publication US20200340007A1, “CLALS PROTEIN, ITS CODING GENE AND USE IN PREDICTING THE HERBICIDE RESISTANCE OF WATERMELON” (BEIJING ACADEMY OF AGRICULTURE AND FORESTRY SCIENCES, priority 2018, published 2020).

How the values were obtained:
[1] = test system: P190L heterozygous mutant strain seedlings; assay: Identification of herbicide resistance spectrum; assay type: in vivo, watermelon; conditions: leaf spray, tribenuron 15, halosulfuron 33.75, bensulfuron 22.5, pyrazosulfuron 24, flumetsulam 48, flucarbazone 31.5 g ai/ha, 7 days
Description: (§1) Watermelon seeds to be tested are seeds of non-transgenic watermelon, seeds of P190L homozygous mutant strain, seeds of P190S homozygous mutant strain, seeds of P190L heterozygous mutant strain, or seeds of P190S heterozygous mutant strain.
(§2) The experiment was repeated three times, and the steps for each are as follows:
(§3) 1. Planting 5 watermelon seeds to be tested in the field and culturing routinely for 10 days until the cotyledons are flattened to obtain the watermelon seedlings to be tested.
(§4) 2. After step 1 is completed, taking the watermelon seedlings to be tested and spraying the leaves with tribenuron, halosulfuron, bensulfuron, pyrazosulfuron, flumetsulam, and flucarbazone, respectively (spraying dose of tribenuron, halosulfuron, bensulfuron, pyrazosulfuron, flumetsulam, and flucarbazone were 15, 33.75, 22.5, 24, 48, and 31.5 g ai/ha; g represents gram, ai represents the active ingredient, ha represents hectare), and then culturing for 7 days to observe the growth status of the watermelon seedling to be tested.
(§5) 3. After step 1 is completed, taking the watermelon seedlings to be tested, spraying the leaves with the same volume of water as the herbicide in step 2, and then culturing for 7 days, to observe the growth status of the watermelon seedlings as a control.

[2] = test system: P190L homozygous mutant strain seedlings; assay: Identification of herbicide resistance spectrum; assay type: in vivo, watermelon; conditions: leaf spray, tribenuron 15, halosulfuron 33.75, bensulfuron 22.5, pyrazosulfuron 24, flumetsulam 48, flucarbazone 31.5 g ai/ha, 7 days
Description: as §1, §2, §3, §4, §5

[3] = test system: P190S heterozygous mutant strain seedlings; assay: Identification of herbicide resistance spectrum; assay type: in vivo, watermelon; conditions: leaf spray, tribenuron 15, halosulfuron 33.75, bensulfuron 22.5, pyrazosulfuron 24, flumetsulam 48, flucarbazone 31.5 g ai/ha, 7 days
Description: as §1, §2, §3, §4, §5

[4] = test system: P190S homozygous mutant strain seedlings; assay: Identification of herbicide resistance spectrum; assay type: in vivo, watermelon; conditions: leaf spray, tribenuron 15, halosulfuron 33.75, bensulfuron 22.5, pyrazosulfuron 24, flumetsulam 48, flucarbazone 31.5 g ai/ha, 7 days
Description: as §1, §2, §3, §4, §5

[5] = test system: non-transgenic watermelon seedlings; assay: Identification of resistance to the herbicide tribenuron, seedlings sprayed in the field; assay type: in vivo; conditions: leaf spray 17 g ai/ha
Description: (§6) The watermelon seeds to be tested are seeds of non-transgenic watermelon, seeds of P190L homozygous mutant strains, seeds of P190S homozygous mutant strains, seeds of P190L heterozygote mutant strains, or seeds of P190S heterozygote mutant strains.
(§7) The experiment was repeated three times, and the steps for each were as follows:
(§8) 1. Planting 20 watermelon seeds to be tested in the field and culturing routinely to obtain watermelon seedlings to be tested in a two-leaf one-heart period.
(§9) 2. After step 1 is completed, taking the watermelon seedlings to be tested, spraying the leaves with tribenuron (the spraying dose is 17 g ai/ha; g represents gram, ai represents the active ingredient, and ha represents hectare), and then culturing routinely for 7 days to observe the growth status of the watermelon seedlings to be tested.

[6] = test system: P190L heterozygous mutant strain seedlings; assay: as above; assay type: in vivo, watermelon; conditions: leaf spray 17 g ai/ha, observed 7 days
Description: as §6, §7, §8, §9

[7] = test system: P190L homozygous mutant strain seedlings; assay: as above; assay type: in vivo, watermelon; conditions: leaf spray 17 g ai/ha
Description: as §6, §7, §8, §9

[8] = test system: P190S heterozygous mutant strain seedlings; assay: as above; assay type: in vivo, watermelon; conditions: leaf spray 17 g ai/ha, observed 7 days
Description: as §6, §7, §8, §9

[9] = test system: P190S homozygous mutant strain seedlings; assay: as above; assay type: in vivo, watermelon; conditions: leaf spray 17 g ai/ha
Description: as §6, §7, §8, §9

Structure (SMILES) | resistance of seedlings to the herbicide compared with non-transgenic watermelon [1] | resistance of seedlings to the herbicide compared with non-transgenic watermelon [2] | resistance of seedlings to the herbicide compared with non-transgenic watermelon [3] | resistance of seedlings to the herbicide compared with non-transgenic watermelon [4] | time to death of seedlings after spraying [5] [days] | growth status of the watermelon seedlings after spraying ([5]; two-leaf one-heart period, observed 7 days) | growth status of the watermelon seedlings after spraying [6] | growth after spraying compared with seedlings of the heterozygous mutant strains ([7]; 7 days) | growth status of the watermelon seedlings after spraying ([7]; observed 7 days) | growth status of the watermelon seedlings after spraying [8] | growth after spraying compared with seedlings of the heterozygous mutant strains ([9]; 7 days) | growth status of the watermelon seedlings after spraying ([9]; observed 7 days)
COc1nn(C(=O)NS(=O)(=O)c2ccccc2OC(F)(F)F)c(=O)n1C [flucarbazone] | obvious resistance | obvious resistance | obvious resistance | obvious resistance | – | – | – | – | – | – | – | –
COc1cc(OC)nc(NC(=O)NS(=O)(=O)Cc2ccccc2C(=O)O)n1 [bensulfuron] | obvious resistance | obvious resistance | obvious resistance | obvious resistance | – | – | – | – | – | – | – | –
COc1nc(C)nc(N(C)C(=O)NS(=O)(=O)c2ccccc2C(=O)O)n1 [tribenuron] | obvious resistance | obvious resistance | obvious resistance | obvious resistance | 3 to 7 | died quickly | grew normally | grew better | grew normally | grew normally | grew better | grew normally
COc1cc(OC)nc(NC(=O)NS(=O)(=O)c2c(C(=O)O)cnn2C)n1 [pyrazosulfuron] | obvious resistance | obvious resistance | obvious resistance | obvious resistance | – | – | – | – | – | – | – | –
COc1cc(OC)nc(NC(=O)NS(=O)(=O)c2c(C(=O)O)c(Cl)nn2C)n1 [halosulfuron] | obvious resistance | obvious resistance | obvious resistance | obvious resistance | – | – | – | – | – | – | – | –
Cc1ccn2nc(S(=O)(=O)Nc3c(F)cccc3F)nc2n1 [flumetsulam] | obvious resistance | obvious resistance | obvious resistance | obvious resistance | – | – | – | – | – | – | – | –
